Assay results: patent publication US20040266623A1, “SYNERGISTIC QUINCLORAC HERBICIDAL COMPOSITIONS” (priority 2003, published 2004)

Tested on: crabgrass
Assay: Greenhouse pot test, postemergent spray, visual control rating converted to percent control
Format: in vivo
Procedure, shortened: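 Greenhouse pots in soilless medium receive a 43.46 gal/acre spray. Control is scored visually at 24, 48, 72 HAT and 7, 14, 21 DAT, 1–9 scale converted to percent.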

With O=C(O)c1c(Cl)ccc2cc(Cl)cnc12 [Quinclorac, 3,7-dichloro-8-quinolinecarboxylic acid] the “% Control Crabgrass” value (Test 1, 7 DAT, 0.18 lbs/A) was 44.4%, the “Control (1-9) Crabgrass” value (Test 1, 7 DAT, 0.18 lbs/A) was 4 and the “% Control Crabgrass” value (Test 1, 7 DAT, 0.375 lbs/A) was 44.4%. The “Control (1-9) Crabgrass” value (Test 1, 7 DAT, 0.375 lbs/A) was 4, the “% Control Crabgrass” value (Test 1, 7 DAT, 0.75 lbs/A) was 44.4% and the “Control (1-9) Crabgrass” value (Test 1, 7 DAT, 0.75 lbs/A) was 4. For the same compound, the “% Control Crabgrass” value (Test 1, 14 DAT, 0.18 lbs/A) was 77.8%, the “Control (1-9) Crabgrass” value (Test 1, 14 DAT, 0.18 lbs/A) was 7 and the “% Control Crabgrass” value (Test 1, 14 DAT, 0.375 lbs/A) was 55.6%. For the same compound, the “Control (1-9) Crabgrass” value (Test 1, 14 DAT, 0.375 lbs/A) was 5, the “% Control Crabgrass” value (Test 1, 14 DAT, 0.75 lbs/A) was 55.6% and the “Control (1-9) Crabgrass” value (Test 1, 14 DAT, 0.75 lbs/A) was 5. For the same compound, the “% Control Crabgrass” value (Test 1, 24 HAT, 0.18 lbs/A) was 22.2%, the “Control (1-9) Crabgrass” value (Test 1, 24 HAT, 0.18 lbs/A) was 2 and the “% Control Crabgrass” value (Test 1, 24 HAT, 0.375 lbs/A) was 22.2%. For the same compound, the “Control (1-9) Crabgrass” value (Test 1, 24 HAT, 0.375 lbs/A) was 2, the “% Control Crabgrass” value (Test 1, 24 HAT, 0.75 lbs/A) was 22.2% and the “Control (1-9) Crabgrass” value (Test 1, 24 HAT, 0.75 lbs/A) was 2. The “% Control Crabgrass” value (Test 1, 48 HAT, 0.18 lbs/A) was 33.3%, the “Control (1-9) Crabgrass” value (Test 1, 48 HAT, 0.18 lbs/A) was 3 and the “% Control Crabgrass” value (Test 1, 48 HAT, 0.375 lbs/A) was 44.4%. For the same compound, the “Control (1-9) Crabgrass” value (Test 1, 48 HAT, 0.375 lbs/A) was 4, the “% Control Crabgrass” value (Test 1, 48 HAT, 0.75 lbs/A) was 44.4% and the “Control (1-9) Crabgrass” value (Test 1, 48 HAT, 0.75 lbs/A) was 4. For the same compound, the “% Control Crabgrass” value (Test 2, 7 DAT, 0.18 lbs/A) was 33.3%, the “Control (1-9) Crabgrass” value (Test 2, 7 DAT, 0.18 lbs/A) was 3 and the “% Control Crabgrass” value (Test 2, 7 DAT, 0.375 lbs/A) was 77.8%. For the same compound, the “Control (1-9) Crabgrass” value (Test 2, 7 DAT, 0.375 lbs/A) was 7, the “% Control Crabgrass” value (Test 2, 7 DAT, 0.75 lbs/A) was 77.8% and the “Control (1-9) Crabgrass” value (Test 2, 7 DAT, 0.75 lbs/A) was 7. For the same compound, the “% Control Crabgrass” value (Test 2, 14 DAT, 0.18 lbs/A) was 55.6%, the “Control (1-9) Crabgrass” value (Test 2, 14 DAT, 0.18 lbs/A) was 5 and the “% Control Crabgrass” value (Test 2, 14 DAT, 0.375 lbs/A) was 77.8%. For the same compound, the “Control (1-9) Crabgrass” value (Test 2, 14 DAT, 0.375 lbs/A) was 7, the “% Control Crabgrass” value (Test 2, 14 DAT, 0.75 lbs/A) was 88.9% and the “Control (1-9) Crabgrass” value (Test 2, 14 DAT, 0.75 lbs/A) was 8. For the same compound, the “% Control Crabgrass” value (Test 2, 24 HAT, 0.18 lbs/A) was 33.3%, the “Control (1-9) Crabgrass” value (Test 2, 24 HAT, 0.18 lbs/A) was 3 and the “% Control Crabgrass” value (Test 2, 24 HAT, 0.375 lbs/A) was 22.2%. For the same compound, the “Control (1-9) Crabgrass” value (Test 2, 24 HAT, 0.375 lbs/A) was 2, the “% Control Crabgrass” value (Test 2, 24 HAT, 0.75 lbs/A) was 22.2% and the “Control (1-9) Crabgrass” value (Test 2, 24 HAT, 0.75 lbs/A) was 2. For the same compound, the “% Control Crabgrass” value (Test 2, 72 HAT, 0.18 lbs/A) was 44.4%, the “Control (1-9) Crabgrass” value (Test 2, 72 HAT, 0.18 lbs/A) was 4 and the “% Control Crabgrass” value (Test 2, 72 HAT, 0.375 lbs/A) was 33.3%. The “Control (1-9) Crabgrass” value (Test 2, 72 HAT, 0.375 lbs/A) was 3, the “% Control Crabgrass” value (Test 2, 72 HAT, 0.75 lbs/A) was 44.4% and the “Control (1-9) Crabgrass” value (Test 2, 72 HAT, 0.75 lbs/A) was 4. For the same compound, the “% Control Crabgrass” value (Test 4, 7 DAT, 0.18 lbs/A) was 11.1%, the “Control (1-9) Crabgrass” value (Test 4, 7 DAT, 0.18 lbs/A) was 1 and the “% Control Crabgrass” value (Test 4, 7 DAT, 0.375 lbs/A) was 22.2%. The “Control (1-9) Crabgrass” value (Test 4, 7 DAT, 0.375 lbs/A) was 2, the “% Control Crabgrass” value (Test 4, 7 DAT, 0.75 lbs/A) was 22.2% and the “Control (1-9) Crabgrass” value (Test 4, 7 DAT, 0.75 lbs/A) was 2. The “% Control Crabgrass” value (Test 4, 14 DAT, 0.18 lbs/A) was 22.2%, the “Control (1-9) Crabgrass” value (Test 4, 14 DAT, 0.18 lbs/A) was 2 and the “% Control Crabgrass” value (Test 4, 14 DAT, 0.375 lbs/A) was 33.3%. The “Control (1-9) Crabgrass” value (Test 4, 14 DAT, 0.375 lbs/A) was 3, the “% Control Crabgrass” value (Test 4, 14 DAT, 0.75 lbs/A) was 44.4% and the “Control (1-9) Crabgrass” value (Test 4, 14 DAT, 0.75 lbs/A) was 4.
